Measurements as given in ChEMBL document CHEMBL4699661, “Synthesis and Biological Characterization of Cyclic Disulfide-Containing Peptide Analogs of the Multifunctional Opioid/Neuropeptide FF Receptor Agonists That Produce Long-Lasting and Nontolerant Antinociception” (J Med Chem, 2020).
Active and inactive are the calls of the source. The rule behind the calls is not given here. Non-standard residues stand in square brackets, D forms with d. Residues, ends and D or L forms follow the SMILES beside them.

Legend:
[1] = target: T1, Neuropeptide FF receptor 1 (Homo sapiens, UniProt Q9GZQ6); test: Agonist activity at NPFFR1 (unknown origin) expressed in HEK293-A cells assessed as inhibition of forskolin-stimulated cAMP accumulation incubated for 30 mins by competition PKA binding assay; assay type: functional, cell-based
[2] = Induction of constipation in sc dosed Kunming mouse assessed as inhibition of gastrointestinal motility by charcoal based gastrointestinal motility test; assay type: organism-based; settings: in vivo
[3] = test system: Mus musculus; test: Analgesic activity in sc dosed Kunming mouse by radiant heat tail flick test; assay type: functional
[4] = target: T2, Delta-type opioid receptor (Homo sapiens, UniProt P41143); test: Agonist activity at delta opioid receptor (unknown origin) expressed in HEK293-A cells assessed as inhibition of forskolin-stimulated cAMP accumulation incubated for 30 mins by competition PKA binding assay relative to control; assay type: functional, cell-based
[5] = Half life in 100% mouse plasma at 0.01 mM by RP-HPLC analysis; assay type: ADME, cell-free
[6] = test system: Mus musculus; test: Analgesic activity in Kunming mouse at 0.09 umol/kg, sc by radiant heat tail flick test; assay type: functional; settings: dose 0.09 µmol/kg
[7] = Toxicity in Kunming mouse assessed as increase in total travelled distance at 0.09 umol/kg, sc by open field assay; assay type: organism-based; settings: in vivo, dose 0.09 µmol/kg
[8] = target: T2, Delta-type opioid receptor; test: Agonist activity at delta opioid receptor (unknown origin) expressed in HEK293-A cells assessed as inhibition of forskolin-stimulated cAMP accumulation incubated for 30 mins by competition PKA binding assay; assay type: functional, cell-based
[9] = target: Mu-type opioid receptor (Homo sapiens, UniProt P35372); test: Agonist activity at mu opioid receptor (unknown origin) expressed in HEK293-A cells assessed as inhibition of forskolin-stimulated cAMP accumulation incubated for 30 mins by competition PKA binding assay; assay type: functional, cell-based
[10] = target: Kappa-type opioid receptor (Homo sapiens, UniProt P41145); test: Agonist activity at kappa opioid receptor (unknown origin) expressed in HEK293-A cells assessed as inhibition of forskolin-stimulated cAMP accumulation incubated for 30 mins by competition PKA binding assay; assay type: functional, cell-based; settings: read-out: EC50
[11] = test system: Mus musculus; test: Analgesic activity in Kunming mouse at 30 pmol, icv by radiant heat tail flick test; assay type: functional
[12] = Safety index, ratio of ED50 for induction of constipation in sc dosed Kunming mouse to ED50 for analgesic activity in sc dosed Kunming mouse; assay type: organism-based; settings: in vivo, read-out: Ratio ED50
[13] = Toxicity in Kunming mouse assessed as increase in jumping counts after naloxone-injection at 0.09 umol/kg, sc by naloxone-precipitated withdrawal test; assay type: organism-based; settings: in vivo, dose 0.09 µmol/kg
[14] = target: T3, Neuropeptide FF receptor 2 (Homo sapiens, UniProt Q9Y5X5); test: Agonist activity at NPFFR2 (unknown origin) expressed in HEK293-A cells assessed as inhibition of forskolin-stimulated cAMP accumulation incubated for 30 mins by competition PKA binding assay; assay type: functional, cell-based
[15] = test system: Mus musculus; test: Analgesic activity in icv dosed Kunming mouse dosed once daily for 8 consecutive days by radiant heat tail flick test; assay type: functional, organism-based; settings: time 8.0 day
[16] = test system: Mus musculus; test: Analgesic activity in sc dosed Kunming mouse assessed as time duration during which antinociception lasted by radiant heat tail flick test; assay type: functional
[17] = target: T1, Neuropeptide FF receptor 1; test: Agonist activity at NPFFR1 (unknown origin) expressed in HEK293-A cells assessed as inhibition of forskolin-stimulated cAMP accumulation incubated for 30 mins by competition PKA binding assay relative to control; assay type: functional, cell-based; settings: filed as agonist
[18] = test system: Mus musculus; test: Analgesic activity in icv dosed Kunming mouse assessed as time duration during which supraspinal antinociception lasted by radiant heat tail flick test; assay type: functional
[19] = Toxicity in Kunming mouse assessed as effect on motor coordination at 30 pmol, icv by rotarod test; settings: in vivo, icv_or_intrathecal
[20] = test system: Mus musculus; test: Analgesic activity in sc dosed Kunming mouse dosed once daily for 8 consecutive days by radiant heat tail flick test; assay type: functional, organism-based; settings: time 8.0 day
[21] = Toxicity in Kunming mouse assessed as activation of reward circuits at 0.09 umol/kg, sc by CPP test; assay type: organism-based; settings: in vivo, dose 0.09 µmol/kg
[22] = Toxicity in Kunming mouse assessed as effect on motor coordination at 0.09 umol/kg, sc by rotarod test; assay type: organism-based; settings: in vivo, dose 0.09 µmol/kg
[23] = Half life in 15% mouse brain at 0.01 mM by RP-HPLC analysis; assay type: ADME, tissue-based
[24] = target: T3, Neuropeptide FF receptor 2; test: Agonist activity at NPFFR2 (unknown origin) expressed in HEK293-A cells assessed as inhibition of forskolin-stimulated cAMP accumulation incubated for 30 mins by competition PKA binding assay relative to control; assay type: functional, cell-based; settings: filed as agonist
[25] = test system: Mus musculus; test: Analgesic activity in Kunming mouse assessed as increase in antinociceptive effect at 0.03 pmol, icv pre-treated with 10 nmol, icv NPFF receptor antagonist RF9 by radiant heat tail flick test; assay type: functional, organism-based
[26] = test system: Mus musculus; test: Analgesic activity in icv dosed Kunming mouse by radiant heat tail flick test; assay type: functional
[27] = test system: Mus musculus; test: Analgesic activity in sc dosed Kunming mouse pre-treated with 1 mg/kg, sc peripherally restricted opioid receptor antagonist naloxone methiodide by radiant heat tail flick test; assay type: functional, organism-based
[28] = test system: Mus musculus; test: Analgesic activity in sc dosed Kunming mouse pre-treated with 5 nmol, icv peripherally restricted opioid receptor antagonist naloxone methiodide by radiant heat tail flick test; assay type: functional, organism-based
[29] = test system: Mus musculus; test: Analgesic activity in sc dosed Kunming mouse pre-treated with 1 mg/kg, sc opioid receptor antagonist naloxone by radiant heat tail flick test; assay type: functional, organism-based
[30] = Ratio of drug level in brain to plasma in mouse; assay type: ADME; settings: read-out: BPR

N=C(N)NCCC[C@H](NC(=O)[C@H](CCC(N)=O)NC(=O)[C@@H]1CCCN1C(=O)[C@H]1CSSC[C@@H](NC(=O)[C@@H](N)Cc2ccc(O)cc2)C(=O)NCC(=O)N[C@@H](Cc2ccccc2)C(=O)N1)C(=O)N[C@@H](Cc1ccccc1)C(N)=O
EC50 [1]: 361 nM | Activity [2]: Dose-dependent effect | ED50 [2]: 0.07 µmol/kg | Activity [3]: Dose-dependent effect | ED50 [3]: 0.002 µmol/kg | Emax ([4]; filed as agonist): 63.6% | half-life at 10 µM [5]: 14.6 min | Activity [6]: 80% | Activity [7]: Non-Toxic | EC50 [8]: 200 nM | EC50 [9]: 196 nM | EC50 [10]: 2460 nM | MPE [11]: 90% | selectivity ratio [12]: 35 | Activity [13]: Non-Toxic | EC50 [14]: 192 nM | Activity [15]: Active | Time [16]: 4 h | Emax [17]: 75.6% | Activity [18]: Dose-dependent effect | Time [18]: 3 h | Activity [19]: Non-Toxic | Activity [20]: Active | Activity [21]: Toxic | Activity [22]: Non-Toxic | half-life at 10 µM [23]: 255 min | Emax [24]: 74.6% | Activity [25]: Active | ED50 [26]: 0.001 pmol

C[C@@H](NC(=O)[C@@H](N)Cc1ccc(O)cc1)C(=O)NCC(=O)N[C@@H](Cc1ccccc1)C(=O)N[C@@H](CCC(N)=O)C(=O)N1CCC[C@H]1C(=O)N[C@@H](CCC(N)=O)C(=O)N[C@@H](CCCNC(=N)N)C(=O)N[C@@H](Cc1ccccc1)C(N)=O (H-Y[dA]GFQPQRF-NH2)
ED50 [3]: 1.37 µmol/kg | Activity [20]: Active | Activity [25]: Active | ED50 [26]: 390 pmol

N=C(N)NCCC[C@H](NC(=O)[C@H](CCC(N)=O)NC(=O)[C@@H]1CCCN1C(=O)[C@H](CS)NC(=O)[C@H](Cc1ccccc1)NC(=O)CNC(=O)[C@H](CS)NC(=O)[C@@H](N)Cc1ccc(O)cc1)C(=O)N[C@@H](Cc1ccccc1)C(N)=O
EC50 [1]: 24.9 nM | Activity [27]: inactive | Activity [28]: Active | ED50 [3]: 0.24 µmol/kg | Emax [4]: 35.8% | half-life at 10 µM [5]: 29.6 min | EC50 [8]: 218 nM | Activity [29]: inactive | EC50 [9]: 1550 nM | EC50 [10]: 184 nM | EC50 [14]: 752 nM | Time [16]: 1.5 h | Emax [17]: 79.7% | Activity [20]: Active | Emax [24]: 62.9% | Activity [25]: Active | ED50 [26]: 150 pmol

CN1CC[C@]23c4c5ccc(O)c4O[C@H]2[C@@H](O[C@@H]2O[C@H](C(=O)O)[C@@H](O)[C@H](O)[C@H]2O)C=C[C@H]3[C@H]1C5 [MORPHINE GLUCURONIDE]
Kp [30]: 0.05

N=C(N)NCCC[C@H](NC(=O)[C@H](CCC(N)=O)NC(=O)[C@@H]1CCCN1C(=O)[C@H]1CSSC[C@H](NC(=O)[C@@H](N)Cc2ccc(O)cc2)C(=O)NCC(=O)N[C@@H](Cc2ccccc2)C(=O)N1)C(=O)N[C@@H](Cc1ccccc1)C(N)=O
EC50 [1]: 354 nM | ED50 [3]: 0.003 µmol/kg | Emax ([4]; filed as agonist): 60.3% | half-life at 10 µM [5]: 17 min | EC50 [8]: 490 nM | EC50 [9]: 3830 nM | EC50 [10]: 743 nM | EC50 [14]: 168 nM | Activity [15]: Active | Time [16]: 4 h | Emax [17]: 82.8% | Time [18]: 3 h | Activity [20]: Active | half-life at 10 µM [23]: 229 min | Emax [24]: 61.6% | Activity [25]: Active | ED50 [26]: 0.21 pmol
